Measurements: patent publication US6391891B1, “Bicyclic compounds as ligands for 5-HT1 receptors” (SmithKline Beecham plc, priority 1997, dated 2002)

Columns and labels:
5-HT1A receptors = biological target: T1, 5-HT1A receptors (Homo sapiens, UniProt P08908); assay: 5-HT1A receptor radioligand binding assay ([3H]-8-OH DPAT); details: HEK 293 cells expressing 5-HT1A receptors; [3H]-8-OH DPAT 1 nM; 37° C., 45 minutes; read-out: pKi at 5-HT1A receptors (converted)
T1 construct: expressed in transfected cells; host or cells: HEK 293 cells
T1 sequence (P08908 1-422): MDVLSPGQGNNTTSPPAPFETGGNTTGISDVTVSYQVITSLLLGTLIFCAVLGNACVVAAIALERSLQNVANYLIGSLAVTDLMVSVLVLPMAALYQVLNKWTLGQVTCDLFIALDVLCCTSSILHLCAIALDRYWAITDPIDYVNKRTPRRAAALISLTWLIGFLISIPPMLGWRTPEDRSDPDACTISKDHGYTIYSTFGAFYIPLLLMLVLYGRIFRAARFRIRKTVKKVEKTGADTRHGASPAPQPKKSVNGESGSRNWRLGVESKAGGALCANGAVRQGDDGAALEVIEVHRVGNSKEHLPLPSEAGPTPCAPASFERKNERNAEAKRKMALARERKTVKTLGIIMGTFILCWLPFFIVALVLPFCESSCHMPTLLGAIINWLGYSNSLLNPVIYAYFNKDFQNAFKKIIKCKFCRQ
Procedure: (§1) The affinities of the compounds of this invention for the 5HT1A, 5-HT1B and 5-HT1D receptors can be determined by the following radioligand binding assay. HEK 293 cells expressing 5-HT1A receptors (4×10^7/ml) are homogenised in Tris buffer and stored in 1 ml aliquots. CHO cells expressing 5-HT1B receptors (4×10^7 cells/ml) are homogenised in Tris buffer and stored in 1.5 ml aliquots. CHO cells expressing 5-HT1D receptors (0.563×10^8/ml) are homogenised in Tris buffer and stored in 1 ml aliquots. 0.4 ml of a cell suspension is incubated with [^3H]-5-HT (4 nM) for 5-HT1B/1D receptors and [^3H]-8-OH DPAT (1 nM) for 5-HT1A receptors in Tris Mg HCl buffer (pH 7.7) and test drug, at 37° C. for 45 minutes. Each test drug is tested at 10 concentrations (0.01 mM to 0.3 nM final concentration), with non-specific binding defined using 0.01 mM 5-HT. The total assay volume is 0.5 ml. Incubation is stopped by rapid filtration using a Packard Filtermate (filters pre-soaked in 0.3% polyethylenimine) and radioactivity measured by Topcount scintillation counting. pKi values are calculated from the IC50 generated by an iterative least squares curve fitting programme.
(§2) The affinities of the compounds of this invention were determined by methods described above.
(§3) 5-HT1A, 5-HT1B and 5-HT1D Receptor Binding

5-HT1B receptors = biological target: T2, 5-HT1B receptors (Homo sapiens, UniProt P28222); assay: 5-HT1B receptor radioligand binding assay ([3H]-5-HT); details: CHO cells expressing 5-HT1B receptors; [3H]-5-HT 4 nM; 37° C., 45 minutes; read-out: pKi at 5-HT1B receptors (converted)
T2 construct: expressed in transfected cells; host or cells: CHO cells
Procedure: as §1, §2, §3

5-HT1D receptors = biological target: T3, 5-HT1D receptors (Homo sapiens, UniProt P28221); assay: 5-HT1D receptor radioligand binding assay ([3H]-5-HT); details: CHO cells expressing 5-HT1D receptors; [3H]-5-HT 4 nM; 37° C., 45 minutes; read-out: pKi at 5-HT1D receptors (converted)
T3 construct: expressed in transfected cells; host or cells: CHO cells
Procedure: as §1, §2, §3

T2 sequence (P28222 whole entry): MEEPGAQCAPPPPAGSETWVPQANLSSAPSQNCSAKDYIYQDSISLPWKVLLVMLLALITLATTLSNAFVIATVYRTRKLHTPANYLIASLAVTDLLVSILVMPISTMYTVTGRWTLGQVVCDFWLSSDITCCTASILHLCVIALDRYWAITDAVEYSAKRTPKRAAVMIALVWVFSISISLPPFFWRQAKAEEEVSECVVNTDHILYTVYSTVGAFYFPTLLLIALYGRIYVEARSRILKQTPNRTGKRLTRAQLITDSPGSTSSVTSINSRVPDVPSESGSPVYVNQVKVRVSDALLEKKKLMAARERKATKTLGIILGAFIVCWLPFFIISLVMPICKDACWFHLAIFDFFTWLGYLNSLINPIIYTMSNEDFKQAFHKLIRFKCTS
T3 sequence (P28221 whole entry): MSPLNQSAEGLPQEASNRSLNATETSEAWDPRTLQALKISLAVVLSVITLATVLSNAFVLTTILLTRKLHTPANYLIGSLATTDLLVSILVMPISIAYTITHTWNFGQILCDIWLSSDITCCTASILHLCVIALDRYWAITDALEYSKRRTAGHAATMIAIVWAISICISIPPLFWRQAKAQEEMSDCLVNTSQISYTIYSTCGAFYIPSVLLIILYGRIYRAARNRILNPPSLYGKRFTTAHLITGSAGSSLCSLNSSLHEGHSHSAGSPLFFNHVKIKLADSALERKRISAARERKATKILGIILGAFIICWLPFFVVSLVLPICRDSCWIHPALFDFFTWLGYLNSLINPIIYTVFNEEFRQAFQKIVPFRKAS

Row | Ki (5-HT1A receptors) | Ki (5-HT1B receptors) | Ki (5-HT1D receptors) | Compound
1 | < 10 nM | < 10 nM | < 10 nM | CN1CCC(c2c[nH]c3ccc(NC(=O)Nc4ccc(-c5ccncc5)cc4Cl)cc23)CC1 [Example 4, N-[2-Chloro-4-(pyridin-4-yl)phenyl]-N′-[3-(1-methylpiperidin-4-yl)indol-5-yl]-urea]
2 | < 10 nM | < 10 nM | < 10 nM | CN1CCC(c2c[nH]c3ccc(NC(=O)Nc4ccc(-c5ccncc5)c(Cl)c4)cc23)CC1 [Example 8, N-[3-Chloro-4-(pyridin-4-yl)phenyl]-N′-[3-(1-methylpiperidin-4-yl)indol-5-yl]-3-urea]
3 | < 10 nM | < 10 nM | < 10 nM | CN1CC=C(c2csc3ccc(NC(=O)Nc4ccc(-c5ccncc5)c5ccccc45)cc23)CC1 [Example 10, N-[3-(1-Methyl-1,2,5,6-tetrahydropyridin-4-yl)benzo[b]thiophen-5-yl]-N′-[4-(pyridin-4-yl)naphth-1-yl]-urea]
4 | < 10 nM | < 10 nM | < 10 nM | CN1CCC(c2csc3ccc(NC(=O)Nc4ccc(-c5ccncc5)c5ccccc45)cc23)CC1 [Example 12, N-[3-(1-Methylpiperidin-4-yl)benzo[b]thiophen-5-yl]-N′-[-4-(pyridin-4-yl)naphth-1-yl]-urea]

More lines, now with the values behind:

Row | Compound | Ki (5-HT1A receptors) | Ki (5-HT1B receptors) | Ki (5-HT1D receptors)
5 | CN1CCC(c2c[nH]c3ccc(NC(=O)Nc4ccc(-c5ccncc5)c5ccccc45)cc23)CC1 [Example 1, N-[3-(1-Methylpiperdin-4-yl)indol-5-yl]-N′-[4-(pyridin-4-yl)naphth-1-yl]-urea] | < 10 nM | < 10 nM | < 10 nM
6 | CN1CCC(c2c[nH]c3ccc(NC(=O)Nc4ccc(-c5ccncc5)c(Cl)c4Cl)cc23)CC1 [Example 3, N-[2,3-Dichloro-4-(pyridin-4-yl)phenyl]-N′-[3-(1-methylpiperidin-4-yl)indol-5-yl]-urea] | < 10 nM | < 10 nM | < 10 nM
7 | CN1CC=C(c2csc3ccc(NC(=O)Nc4ccc(-c5ccncc5)c(Cl)c4)cc23)CC1 [Example 9, N-[3-Chloro-4-(pyridin-4-yl)phenyl]-N′-[3-(1-methyl-1,2,5,6-tetrahydropyridin-4-yl)benzo[b]thiophen-5-yl]-urea] | < 10 nM | < 10 nM | < 10 nM
